Measured values published in patent US9429566B2, “Assay for inhibitors of CIP/KIP protein degradation” (UNIVERSITE DE MONTREAL, priority 2011, dated 2016).
Peptide text beside a SMILES is read from it. * marks the point of attachment. Cbz = O=C(OCc1ccccc1)*

How the values were obtained:
[1] = tested on: p21-Rluc fusion protein; experiment: High throughput p21 degradation assay (p21-Rluc reporter, cycloheximide); assay type: cell-based, human; conditions: MG132 25 μM, set at 100% stabilization
[2] = tested on: endogenous p21 protein; experiment: p21 ELISA of endogenous p21 protein; assay type: cell-based; conditions: dose-response, normalized to DMSO, FIG. 10B
Excerpt: Luciferase values are normalized to the control DMSO (set to 1). […] ELISA values are normalized to the control DMSO.
The p21-Rluc degradation assay was next transposed to a HTS-compatible format in 384-well plates and used to screen the Institut de Recherche en Immunologie et Cancerologie's (IRIC's) collection of 112,900 compounds (FIG. 6) derived from the Chembridge DIVERset™ screening library, the Maybridge Hitfinder™ screening library, the Specs screening library, the Microsource […]™ collection, the Biomol/Enzo Life Sciences Screen-Well™ library, the Prestwick Chemical Library™ library and the Sigma LOPAC^1280™. The potent proteasome inhibitor MG-132 was used as positive control. The mean increase of p21-Rluc signal by all positive controls across the screen was 3.062 (FIG. 6). This value was set at 100% stabilization and used as comparison reference for test compounds. From the primary screen, 686 compounds that increase the p21-Rluc luminescence signal by at least 1.7-fold and 4 SDs above baseline (DMSO control) were identified (FIG. 5). These compounds were re-tested in a reconfirmation experiment using the same assay conditions. […] Confirmed hits were then tested in a secondary assay using Rluc alone to eliminate compounds that increase luciferase enzymatic activity or boost the luminescence signal. […]

SMILES: CC(C)C[C@@H](C=O)NC(=O)[C@H](CC(C)C)NC(=O)[C@H](CC(C)C)NC(=O)OCc1ccccc1 [MG-132] (Cbz-Leu-Leu-Leu-aldehyde)
- mean increase of p21-Rluc signal by all positive controls across the screen [1]: 3.062
- intracellular expression of endogenous p21 protein (ELISA) [2]: increase in the intracellular expression of the endogenous protein
